Test results taken from ChEMBL document CHEMBL4219227, “Polyprenylated polycyclic acylphloroglucinol: Angiogenesis inhibitor from Garcinia multiflora” (Bioorg Med Chem Lett, 2018).
Activity calls are given as the source filed them. The rule behind the calls is not given here.

Legend:
Type in all cases: functional
[1] = tested on: SK-HEP1; assay: Growth inhibition of human SKHEP1 cells after 48 hrs by SRB assay; conditions: SK-HEP1, 48 h
[2] = tested on: PC-3; assay: Growth inhibition of human PC3 cells after 48 hrs by SRB assay; conditions: PC-3, 48 h
[3] = species: Homo sapiens; assay: Growth inhibition of human CD34-positive EPC at 10 uM after 48 hrs by SRB assay
[4] = species: Homo sapiens; assay: Antiangiogenic activity in human CD34-positive EPC assessed as suppression of cell reorganization at 20 uM after 24 hrs by phase contrast microscopic method
[5] = species: Homo sapiens; assay: Antiangiogenic activity in human CD34-positive EPC assessed as suppression of capillary-like structure formation at 20 uM after 24 hrs by phase contrast microscopic method
[6] = Antiangiogenic activity in human CD34-positive EPC assessed as suppression of capillary-like structure formation after 24 hrs by phase contrast microscopic method

`CC(=O)O[C@H]1C(=O)[C@@]2(C)[C@H]([C@H](OC(=O)c3ccccc3)[C@]3(O)C[C@H](OC(=O)[C@H](O)[C@@H](NC(=O)c4ccccc4)c4ccccc4)C(C)=C1C3(C)C)[C@]1(OC(C)=O)CO[C@@H]1C[C@@H]2O` [PACLITAXEL] gave a GI50 [1] of 0.011 µM and a GI50 [2] of 0.013 µM.
For `C=C(C)[C@@H](CC=C(C)C)C[C@]12C[C@@H](CC=C(C)C)C(C)(C)[C@](CC=C(C)C)(C1=O)C(O)=C(C(=O)c1ccccc1)C2=O`, the “growth inhibition (GI)” value [3] was “Active”, the Activity [4] was “Active” and the Activity [5] was “Active”. For the same compound, the IC50 [6] was 14.3 µM, the GI50 [1] was 4.3 µM and the GI50 [2] was 6.6 µM.
With `CC(C)=CCC1=C2OC(C)(C)[C@@H](CC=C(C)C)C[C@@]23C[C@@H](CC=C(C)C)C(C)(C)[C@@](C(=O)c2ccccc2)(C1=O)C3=O` [GARCIMULTIFLORONE A] the “growth inhibition (GI)” value [3] was “Active”, the Activity [4] was “Active” and the Activity [5] was “Active”. For the same compound, the IC50 [6] was 16.5 µM, the GI50 [1] was > 30 µM and the GI50 [2] was 24.8 µM.
With `C=C(C)[C@@H](CC=C(C)C)C[C@@]12C[C@@H](CC=C(C)C)C(C)(C)[C@]3(C=CC(C)(C)OC3=C(C(=O)c3ccccc3)C1=O)C2=O` [GARCIMULTIFLORONE B] the “growth inhibition (GI)” value [3] was “Active”, the Activity [4] was “Active” and the Activity [5] was “Active”. The IC50 [6] was 15.7 µM, the GI50 [1] was > 30 µM and the GI50 [2] was 18.2 µM.
